# Laboratory results as given in article PMC8092209, “Structural Basis of Ligand Selectivity by a Bacterial Adhesin Lectin Involved in Multispecies Biofilm Formation” (mBio, 2021).
# Where “and” joins values, the source holds several entries; their conditions need not be identical. Equal entries are not always repeated. Where two headings read alike, the source gives them in different places.
# Assays:
# Assay type in all cases: binding
# MpPA14 [1] = target: T1, MpPA14 (Marinomonas primoryensis, UniProt A1YIY3); assay: First glycan array (fungal, bacterial and plant polysaccharide array set 2, Imperial College); conditions: for binding to MpPA14 in first glycan array (in words): GFP-MpPA14; for Binding of MpPA14 (RFUs): GFP-MpPA14 50 μg/ml, Alexa Fluor 647 anti-GFP antibody, mean of duplicates
# T1 sequence (A1YIY3 entry or part of it): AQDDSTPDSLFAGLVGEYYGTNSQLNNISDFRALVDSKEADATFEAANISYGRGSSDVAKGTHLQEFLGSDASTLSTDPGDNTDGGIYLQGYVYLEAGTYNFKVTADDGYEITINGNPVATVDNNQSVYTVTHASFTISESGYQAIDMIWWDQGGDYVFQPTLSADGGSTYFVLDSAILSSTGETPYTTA
# MpPA14 [2] = target: T1, MpPA14; assay: Second glycan array (32 polysaccharides, Max Planck Institute for Marine Microbiology); conditions: for Binding of MpPA14 (RFUs): normalized signal intensity, maximal mean set to 100, cutoff of 5
# Source text: To expand the repertoire of glycans beyond glucans and mannans, we performed a second focused microarray composed of 32 polysaccharides found in microbes such as fungi and bacteria, as well as in macroalgae and plants (Fig. 4B). […] In addition, MpPA14 interacted avidly with fucoidans from macroalgae. […] This conformer is not present in the arabinan polymer composed of 1,5-linked α-L-arabino-furanoses, which are then not free to transition to the pyranose form. Similarly, since the MpPA14 binds galactose via the 1,2-diol (β-anomer) (Fig. 3H), the lectin cannot interact with galactans, as they are polymers of β-1,4-D-galactose (Fig. 4B and Table S5).
# The second glycan array was performed at the Max Planck Institute for Marine Microbiology (Bremen, Germany). The array contained duplicates of 32 polysaccharides, including those from macroalgae, bacteria, fungi, and land plants (see details in Table S5 in the supplemental material). N-terminally His-tagged MpPA14 was incubated with the array, and binding of the lectin to the polysaccharides was detected by an anti-His tag secondary antibody conjugated to alkaline phosphatase (Sigma-Aldrich). Microarray probing and quantification were performed as previously described ([45]). Maximal mean (average of the duplicates) signal intensity was set to 100, and the rest of values were normalized accordingly. A cutoff of 5 was applied ([58]).
# MpPA14 [3] = target: T1, MpPA14; assay: Dextran-based comparative competition assay (MpPA14)
# Source text: To gain insight into the binding specificity of MpPA14, we investigated the relative affinity of various monosaccharides for the lectin by a comparative competition assay ([12]). MpPA14 bound to Superdex resin was competitively released into solution by the progressive addition of free sugars. The released protein concentrations measured by absorbance at 280 nm were plotted as a function of free sugar concentration to produce semiquantitative binding curves (Fig. 1A and B). The apparent dissociation constant (Kdapp) calculated from these binding curves was used as a relative measure of affinity for each assayed sugar (Table 1). […] D-Ribose bound […] more strongly than its derivative 2-deoxy-D-ribose (Kdapp of 6.8 mM as opposed to 18 mM; Fig. 1B and Table 1).
# The dextran resin competition assay was performed as previously described for MhPA14 ([12]). Briefly, Superdex 200 (S200) resin was washed twice with 50 mM Tris-HCl (pH 9), 150 mM NaCl, and 5 mM CaCl2. One ml of 1 mg/ml MpPA14 with green fluorescent protein (GFP) fused to its N terminus (GFP-MpPA14) or VcPA14 labeled with FITC was suspended with 300 μl of equilibrated Superdex 200 (S200) resin. Following an incubation period with gentle mixing, the S200 resin bound with GFP-MpPA14 was pelleted by centrifugation. The pellet was washed twice with 50 mM Tris-HCl (pH 9), 150 mM NaCl, and 5 mM CaCl2, and the A280 of the supernatant from the second wash was used as the baseline reading. Next, after resuspension in the same buffer, aliquots of 1.67 μmol saccharide were sequentially added to the solution six or seven times, with the A280 of the supernatant being measured after each addition to quantify the release of lectin. The final addition of saccharide was […]. Data from the dextran affinity assay were plotted using GraphPad Prism after subtracting the background. Next, the data were fitted to a nonlinear regression of one-site-specific binding, which follows the model y/Bmax = x/(Kd + x), with Bmax as the maximum specific binding and Kd as the equilibrium binding constant.
# [4] = GFP-MpPA14 bound to Superdex 200 resin released by free sugar, A280, pH 9, 5 mM CaCl2, – = no detectable binding (footnote a), read-out: Kdapp (apparent dissociation constant)
compound,measurement,setting,value
β-glucan Mixed β-(1→3)/β-(1→4)-D-glucan [β-glucan (Barley)],binding to MpPA14 in first glycan array (in words),MpPA14 [1],negligible or no detectable binding
same,Binding of MpPA14 (RFUs),MpPA14 [1],23 RFUs
same,Binding of MpPA14 (RFUs),MpPA14 [2],0 RFUs
Laminarin (β-(1→3)-D-glucan backbone with 1→6 branches) [Laminarin (Laminaria digitata)],Binding of MpPA14 (RFUs),MpPA14 [2],41 RFUs
Lichenan (β-(1→3)(1→4)-D-glucan) [Lichenan (Icelandic moss)],Binding of MpPA14 (RFUs),MpPA14 [2],44 RFUs
Laminarin (β-(1→3)-D-glucan backbone with 1→6 branches) [Laminarin (Eisenia bicyclis)],Binding of MpPA14 (RFUs),MpPA14 [2],39 RFUs
Pullulan (α-(1→4)(1→6)-D-glucan),binding to MpPA14 in first glycan array (in words),MpPA14 [1],bound most avidly
same,Binding of MpPA14 (RFUs),MpPA14 [1],58106 RFUs
same,Binding of MpPA14 (RFUs),MpPA14 [2],37 RFUs
Fucoidan [Fucoidan (Laminaria)],Binding of MpPA14 (RFUs),MpPA14 [2],69 RFUs
"Lentinan (β-(1→3)-D-glucan backbone, β-(1→3)-D-glucan branches)",binding to MpPA14 in first glycan array (in words),MpPA14 [1],bound most avidly
same,Binding of MpPA14 (RFUs),MpPA14 [1],41060 RFUs
Galactomannan (β-(1→4)-D-mannan backbone),binding to MpPA14 in second glycan array (in words),MpPA14 [2],did not bind
same,Binding of MpPA14 (RFUs),MpPA14 [2],0 RFUs
Alginate,Binding of MpPA14 (RFUs),MpPA14 [2],22 RFUs
β-glucan Mixed β-(1→3)/β-(1→4)-D-glucan [β-glucan (Oat)],binding to MpPA14 in first glycan array (in words),MpPA14 [1],negligible or no detectable binding
same,Binding of MpPA14 (RFUs),MpPA14 [1],0 RFUs
Mannoprotein (mannose rich),binding to MpPA14 in first glycan array (in words),MpPA14 [1],negligible or no detectable binding
same,Binding of MpPA14 (RFUs),MpPA14 [1],0 RFUs
Glucomannan (β-(1→4)-D-mannose and D-glucose backbone),Binding of MpPA14 (RFUs),MpPA14 [2],0 RFUs
Pachyman (β-(1→3)-D-glucan backbone with 1→6 branches),binding to MpPA14 in second glycan array (in words),MpPA14 [2],significant binding
same,Binding of MpPA14 (RFUs),MpPA14 [2],75 RFUs
OC1OC[C@H](O)[C@H](O)[C@H]1O (mixture of isomers) [L-Arabinose],Kd,MpPA14 [3],2200 µM
Dextran (α-(1→6)-D-glucan backbone),binding to MpPA14 in first glycan array (in words),MpPA14 [1],bound most avidly
same,Binding of MpPA14 (RFUs),MpPA14 [1],41390 RFUs
"GN6-AO (chitin, β-1→4-GlcNAc)",binding to MpPA14 in first glycan array (in words),MpPA14 [1],negligible or no detectable binding
same,Binding of MpPA14 (RFUs),MpPA14 [1],178 RFUs
"O[C@H]1[C@H](O)[C@@H](O)[C@H](O)[C@@H](O)[C@H]1O [Inositol, myo-inositol]",Kd,MpPA14 [3],2700 µM
Curdlan (β-(1→3)-D-glucan),binding to MpPA14 in first glycan array (in words),MpPA14 [1],negligible or no detectable binding
same,Binding of MpPA14 (RFUs),MpPA14 [1],167 RFUs
"Mannan (α-(1→6)-D-mannan backbone, α-(1→2)-,α-(1→3)-mannan branches) [Mannan (Saccharomyces cerevisiae)]",binding to MpPA14 in first glycan array (in words),MpPA14 [1],weak binding
same,Binding of MpPA14 (RFUs),MpPA14 [1],3808 RFUs
same,binding to MpPA14 in second glycan array (in words),MpPA14 [2],no detectable interaction
same,Binding of MpPA14 (RFUs),MpPA14 [2],0 RFUs
β-(1→4)-D-galactan,binding to MpPA14 in second glycan array (in words),MpPA14 [2],did not bind
same,Binding of MpPA14 (RFUs),MpPA14 [2],0 RFUs
Partially acetylated alginate,Binding of MpPA14 (RFUs),MpPA14 [2],0 RFUs
"COC1OC(CO)C(O)C(O)C1O [Methyl-α-glucose, methyl-α-D-glucose]",Kd,MpPA14 [3]; [4],2100 µM
Carboxymethyl cellulose (β-(1→4)-D-glucan),Binding of MpPA14 (RFUs),MpPA14 [2],28 RFUs
Porphyran,binding to MpPA14 in second glycan array (in words),MpPA14 [2],did not bind
same,Binding of MpPA14 (RFUs),MpPA14 [2],0 RFUs
Scleroglucan (β-(1→3)-D-glucan backbone with 1→6 branches),binding to MpPA14 in second glycan array (in words),MpPA14 [2],significant binding
same,Binding of MpPA14 (RFUs),MpPA14 [2],65 RFUs
"Glucurono-XyloMannan (α-(1→3)-Mannan with Xyl, GlcA and Fuc branches)",binding to MpPA14 in first glycan array (in words),MpPA14 [1],negligible or no detectable binding
same,Binding of MpPA14 (RFUs),MpPA14 [1],75 RFUs
same,Binding of MpPA14 (RFUs),MpPA14 [2],0 RFUs
Galactofucan,Binding of MpPA14 (RFUs),MpPA14 [2],40 RFUs
"OC[C@H]1OC(O)[C@@H](O)[C@@H](O)[C@@H]1O (stereo partly drawn) [Mannose, D-Mannose]",Kd,MpPA14 [3],1700 µM
Pustulan (β-(1→6)-D-glucan) [Pustulan (Umbilicaria papullosa)],Binding of MpPA14 (RFUs),MpPA14 [1],1565 RFUs
Fucoidan [Fucoidan (Ascophyllum nodosum)],binding to MpPA14 in second glycan array (in words),MpPA14 [2],strongest MpPA14-binding fucoidans
same,Binding of MpPA14 (RFUs),MpPA14 [2],77 RFUs
Fucoidan [Fucoidan (Fucus vesiculosus)],Binding of MpPA14 (RFUs),MpPA14 [2],29 RFUs
"NSG (β-(1→3)-D-glucan backbone, β-(1→3)-D-glucan branches)",Binding of MpPA14 (RFUs),MpPA14 [1],2319 RFUs
Pustulan (β-(1→6)-D-glucan) [Pustulan (Lasallia pustulata)],binding to MpPA14 in second glycan array (in words),MpPA14 [2],significant binding
same,Binding of MpPA14 (RFUs),MpPA14 [2],86 RFUs
Polygalacturonic acid (α-(1→4)-D-galacturonic acid),Binding of MpPA14 (RFUs),MpPA14 [2],0 RFUs
α-(1→5)-L-arabinan,binding to MpPA14 in second glycan array (in words),MpPA14 [2],did not bind
same,Binding of MpPA14 (RFUs),MpPA14 [2],0 RFUs
Lichenan Mixed β-(1→3)/β-(1→4)-D-glucan [Lichenan (Lichen)],Binding of MpPA14 (RFUs),MpPA14 [1],349 RFUs
Xyloglucan,binding to MpPA14 in second glycan array (in words),MpPA14 [2],did not bind
same,Binding of MpPA14 (RFUs),MpPA14 [2],0 RFUs
"CO[C@@H]([C@H](O)[C@H](O)CO)[C@@H](O)C=O [3-O-methyl-glucose, 3-O-methyl-D-glucose]",Kd,MpPA14 [3],5700 µM
O=C[C@H](O)[C@@H](O)[C@H](O)CO [Xylose],Kd,MpPA14 [3],11000 µM
Fucoidan [Fucoidan (Cladosiphon)],binding to MpPA14 in second glycan array (in words),MpPA14 [2],strongest MpPA14-binding fucoidans
same,Binding of MpPA14 (RFUs),MpPA14 [2],100 RFUs
"PGPGG (β-(1→3)-D-glucan backbone, β-(1→3)-D-glucan branches)",Binding of MpPA14 (RFUs),MpPA14 [1],30143 RFUs
"Grifolan (β-(1→3)-D-glucan backbone, highly branched oligomers)",binding to MpPA14 in first glycan array (in words),MpPA14 [1],bound most avidly
same,Binding of MpPA14 (RFUs),MpPA14 [1],39935 RFUs
Arabinoxylan,Binding of MpPA14 (RFUs),MpPA14 [2],0 RFUs
β-(1→4)-D-xylan,binding to MpPA14 in second glycan array (in words),MpPA14 [2],did not bind
same,Binding of MpPA14 (RFUs),MpPA14 [2],0 RFUs
"O=C[C@H](O)[C@@H](O)[C@@H](O)[C@H](O)CO [Galactose, D-galactose]",Kd,MpPA14 [3],4100 µM
"N -Mannoprotein (α-1→6-mannan backbone with oligomeric α-(1→2)-, α-(1→3)-, and β-(1→2)-mannan branches",binding to MpPA14 in first glycan array (in words),MpPA14 [1],moderate lectin-glycan interactions
same,Binding of MpPA14 (RFUs),MpPA14 [1],17438 RFUs
Mannan (β-(1→4)-D-mannan) [Mannan (Ivory nut)],Binding of MpPA14 (RFUs),MpPA14 [2],15 RFUs
"O=C[C@H](O)[C@H](O)[C@H](O)CO [Ribose, D-Ribose]",Kd,MpPA14 [3]; [4],6800 µM
Fucoidan [Fucoidan (Sargassum)],binding to MpPA14 in second glycan array (in words),MpPA14 [2],strongest MpPA14-binding fucoidans
same,Binding of MpPA14 (RFUs),MpPA14 [2],84 RFUs
Ulvan,Binding of MpPA14 (RFUs),MpPA14 [2],34 RFUs
Fucoidan [Fucoidan (Fucus serratus)],Binding of MpPA14 (RFUs),MpPA14 [2],53 RFUs
"O=CC[C@@H](O)[C@H](O)[C@H](O)CO [2-Deoxy-glucose, 2-deoxy-glucose]",Kd,MpPA14 [3],1370 µM and 1400 µM
"O=CC[C@H](O)[C@H](O)CO [2-Deoxy-ribose, 2-deoxy-D-ribose]",Kd,MpPA14 [3],18000 µM
Rhamnogalacturonan I,Binding of MpPA14 (RFUs),MpPA14 [2],0 RFUs
